Assay results as given in patent US8969415B2, “Intraocular drug delivery systems” (Allergan, Inc., priority 2006, dated 2015).
Counter-ions that a name gives are not always drawn.

What was measured:
[1] = in vivo
[2] = tested on: specific receptor target of brimonidine located in retina and iris-ciliary body

vitreal clearance [1]: 0.487 mL/day | brimonidine concentration required for optic neuroprotection [2]: ≥ 2 nM
Compound: Brc1c(NC2=NCCN2)ccc2nccnc12 [brimonidine, 5-bromo-6-(2-imidazolidinylideneamino)quinoxaline tartrate]
